According to ChEMBL document CHEMBL1201862, “PubChem BioAssay data set” (2004):
Active and inactive are the calls of the source.

Tests used:
Bcl-2-related protein A1 = target: T1, Bcl-2-related protein A1 (Mus musculus, UniProt Q07440); assay type: functional;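 also: confirmatory dose–response counterscreen on Bfl-1, used to check hits from a UBC13 polyubiquitin inhibitor campaign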
T1 sequence (Q07440 whole entry): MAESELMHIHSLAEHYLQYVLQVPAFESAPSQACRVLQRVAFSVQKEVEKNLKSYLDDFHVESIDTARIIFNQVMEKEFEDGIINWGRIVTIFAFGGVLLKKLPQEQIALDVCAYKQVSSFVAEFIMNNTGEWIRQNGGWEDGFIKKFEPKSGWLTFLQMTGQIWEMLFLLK

[1] = target: T2, Ubiquitin-conjugating enzyme E2 N (Homo sapiens, UniProt P61088); assay type: functional
T2 sequence (P61088 whole entry): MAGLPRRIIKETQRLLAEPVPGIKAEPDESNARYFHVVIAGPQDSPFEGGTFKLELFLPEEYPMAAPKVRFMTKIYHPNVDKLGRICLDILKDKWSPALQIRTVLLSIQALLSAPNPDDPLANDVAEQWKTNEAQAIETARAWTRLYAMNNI

[2] = target: T2, Ubiquitin-conjugating enzyme E2 N; assay type: functional; remark: listed apart in the source
[3] = target: T3, Alkaline phosphatase, tissue-nonspecific isozyme (Homo sapiens, UniProt P05186); assay: potency against alkaline phosphatase TNAP – biochemical, luminescent, dose response, SAR follow-up (AID 1056)
T3 sequence (P05186 whole entry): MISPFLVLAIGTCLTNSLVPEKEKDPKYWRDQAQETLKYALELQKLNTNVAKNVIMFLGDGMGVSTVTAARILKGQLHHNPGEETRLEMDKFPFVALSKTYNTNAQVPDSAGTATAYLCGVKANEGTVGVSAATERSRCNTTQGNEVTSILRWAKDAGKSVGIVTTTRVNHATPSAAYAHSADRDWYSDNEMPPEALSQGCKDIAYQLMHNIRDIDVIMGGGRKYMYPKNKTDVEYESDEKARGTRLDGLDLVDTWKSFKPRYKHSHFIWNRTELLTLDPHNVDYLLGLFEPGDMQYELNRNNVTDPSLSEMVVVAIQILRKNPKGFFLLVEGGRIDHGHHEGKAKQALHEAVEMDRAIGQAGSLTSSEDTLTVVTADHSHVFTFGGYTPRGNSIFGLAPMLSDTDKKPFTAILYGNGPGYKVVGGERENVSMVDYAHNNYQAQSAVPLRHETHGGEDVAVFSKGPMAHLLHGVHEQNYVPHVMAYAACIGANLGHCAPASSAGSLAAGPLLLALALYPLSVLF

[4] = target: Glyceraldehyde-3-phosphate dehydrogenase (Homo sapiens, UniProt P04406)
Chain of Glyceraldehyde-3-phosphate dehydrogenase (P04406 whole entry): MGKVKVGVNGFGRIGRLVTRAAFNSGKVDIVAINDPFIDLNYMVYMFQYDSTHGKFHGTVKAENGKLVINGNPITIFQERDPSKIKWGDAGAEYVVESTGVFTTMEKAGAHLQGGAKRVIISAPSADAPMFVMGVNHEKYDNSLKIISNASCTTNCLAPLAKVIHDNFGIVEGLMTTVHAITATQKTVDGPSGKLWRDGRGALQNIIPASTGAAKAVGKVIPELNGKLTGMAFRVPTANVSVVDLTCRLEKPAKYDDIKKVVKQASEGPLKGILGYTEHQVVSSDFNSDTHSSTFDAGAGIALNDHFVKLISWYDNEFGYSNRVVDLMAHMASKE

SUMO-activating enzyme [5] = target: T4, SUMO-activating enzyme (Homo sapiens, UniProt Q9UBT2); assay: blockers of SAE1/SAE2–UBC9 SUMO transfer – biochemical, HTRF, uHTS, primary screen (AID 2006); assay type: protein-complex assay
T4 sequence (Q9UBE0 whole entry): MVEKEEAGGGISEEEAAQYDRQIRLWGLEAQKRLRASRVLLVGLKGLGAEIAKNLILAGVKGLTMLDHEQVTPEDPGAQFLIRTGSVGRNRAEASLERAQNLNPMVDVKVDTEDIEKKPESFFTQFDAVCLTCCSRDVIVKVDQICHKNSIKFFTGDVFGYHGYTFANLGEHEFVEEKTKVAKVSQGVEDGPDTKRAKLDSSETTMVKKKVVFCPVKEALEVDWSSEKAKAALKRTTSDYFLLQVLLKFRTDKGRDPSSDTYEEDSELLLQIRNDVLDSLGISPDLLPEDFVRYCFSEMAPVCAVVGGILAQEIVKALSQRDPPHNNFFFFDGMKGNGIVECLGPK
T4 sequence (Q9UBT2 whole entry): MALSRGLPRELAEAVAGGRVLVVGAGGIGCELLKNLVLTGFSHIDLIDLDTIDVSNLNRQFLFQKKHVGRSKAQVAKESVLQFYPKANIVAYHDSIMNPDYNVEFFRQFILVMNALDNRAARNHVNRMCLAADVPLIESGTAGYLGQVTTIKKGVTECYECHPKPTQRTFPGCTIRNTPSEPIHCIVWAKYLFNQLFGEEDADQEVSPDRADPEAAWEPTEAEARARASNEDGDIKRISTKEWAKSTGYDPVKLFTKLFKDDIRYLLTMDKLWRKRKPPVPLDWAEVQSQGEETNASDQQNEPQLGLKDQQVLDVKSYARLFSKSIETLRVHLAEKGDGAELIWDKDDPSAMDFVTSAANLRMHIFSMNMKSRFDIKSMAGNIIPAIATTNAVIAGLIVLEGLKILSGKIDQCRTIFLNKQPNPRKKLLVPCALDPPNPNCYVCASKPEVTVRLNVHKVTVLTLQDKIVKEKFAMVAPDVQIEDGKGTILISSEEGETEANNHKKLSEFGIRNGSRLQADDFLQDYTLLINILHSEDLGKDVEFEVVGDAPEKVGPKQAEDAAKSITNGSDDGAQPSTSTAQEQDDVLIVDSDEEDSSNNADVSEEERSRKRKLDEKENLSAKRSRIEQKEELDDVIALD

[6] = target: Eukaryotic translation initiation factor 4E (Mus musculus, UniProt P63073); assay: blockers of eIF4G binding by eIF4E – biochemical, TR-FRET, dose response (AID 855); assay type: functional;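 also: potency for disrupting eIF4E binding to eIF4GI seen as loss of FRET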
Chain of Eukaryotic translation initiation factor 4E (P63073 whole entry): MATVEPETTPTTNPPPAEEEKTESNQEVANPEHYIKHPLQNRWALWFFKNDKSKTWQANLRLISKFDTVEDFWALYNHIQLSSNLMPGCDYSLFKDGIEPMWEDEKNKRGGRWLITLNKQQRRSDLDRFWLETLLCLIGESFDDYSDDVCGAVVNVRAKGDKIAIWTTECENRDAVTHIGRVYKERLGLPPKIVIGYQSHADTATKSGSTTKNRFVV

SUMO-activating enzyme [7] = target: T4, SUMO-activating enzyme; assay: blockers of UBC9-mediated SUMO conjugation – biochemical, AlphaScreen, SUMOylation inhibitor project, confirmation (AID 2018); assay type: functional
[8] = target: T5, DNA repair protein RAD52 homolog (Homo sapiens, UniProt P43351); assay type: functional, biochemical
T5 sequence (P43351 whole entry): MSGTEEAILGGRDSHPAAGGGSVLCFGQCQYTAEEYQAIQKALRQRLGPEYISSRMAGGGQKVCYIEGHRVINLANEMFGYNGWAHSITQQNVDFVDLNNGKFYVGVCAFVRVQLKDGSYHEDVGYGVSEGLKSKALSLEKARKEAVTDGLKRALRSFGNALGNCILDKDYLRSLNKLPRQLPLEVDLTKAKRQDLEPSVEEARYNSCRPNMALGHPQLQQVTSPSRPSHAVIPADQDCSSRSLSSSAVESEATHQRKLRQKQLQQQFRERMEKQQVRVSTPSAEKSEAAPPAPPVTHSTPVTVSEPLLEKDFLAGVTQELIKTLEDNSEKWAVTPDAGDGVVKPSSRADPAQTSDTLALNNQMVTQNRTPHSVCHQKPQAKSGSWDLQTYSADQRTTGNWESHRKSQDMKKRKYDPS

[9] = HepG2 cell cytotoxicity, dose response, cytotoxicity control for non-replicating M. tuberculosis project (AID 489018); assay type: functional; conditions: Mycobacterium tuberculosis
[10] = THP-1 cell cytotoxicity, dose response, cytotoxicity control for non-replicating M. tuberculosis project (AID 489025); assay type: functional
[11] = Vero E6 cell cytotoxicity, dose response, cytotoxicity control for non-replicating M. tuberculosis project, secondary assay (AID 492998); assay type: functional, VeroE6; conditions: Vero C1008
cells [12] = assay type: functional, cell-based
cells [13] = assay type: functional, cell-based; remark: listed apart in the source
[14] = target: T6, Heat shock factor protein 1 (Mus musculus, UniProt P38532); assay: enhancement of HSF1-driven luciferase signal – cell-based, NIH3T3, luminescence, dose retest, confirmation (AID 435004); assay type: functional;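 also: stress induced by proteasome inhibitor MG132 added 30 min after compound; luciferase reporter driven by HSF1 response element in NIH3T3 cells; actives raise luminescence as potentiators of the MG132 stress response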
T6 sequence (P38532 whole entry): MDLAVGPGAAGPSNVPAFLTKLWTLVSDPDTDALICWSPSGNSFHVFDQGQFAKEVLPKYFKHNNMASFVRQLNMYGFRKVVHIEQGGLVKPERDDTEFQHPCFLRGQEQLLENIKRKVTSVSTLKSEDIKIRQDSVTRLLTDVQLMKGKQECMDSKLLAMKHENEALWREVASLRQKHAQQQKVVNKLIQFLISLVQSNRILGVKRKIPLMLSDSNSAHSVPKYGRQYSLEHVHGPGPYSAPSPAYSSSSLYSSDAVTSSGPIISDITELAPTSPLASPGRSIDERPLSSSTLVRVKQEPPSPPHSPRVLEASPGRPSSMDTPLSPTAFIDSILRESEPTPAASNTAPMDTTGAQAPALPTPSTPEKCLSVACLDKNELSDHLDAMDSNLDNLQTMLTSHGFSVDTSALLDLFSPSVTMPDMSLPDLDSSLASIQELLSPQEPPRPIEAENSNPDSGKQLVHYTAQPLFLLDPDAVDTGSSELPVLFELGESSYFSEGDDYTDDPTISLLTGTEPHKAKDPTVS

[15] = target: T7, Carboxy-terminal domain RNA polymerase II polypeptide A small phosphatase 1 (Homo sapiens, UniProt Q9GZU7); assay: CTDSP1 inhibitors, concentration-response, biochemical, absorbance readout, ultra-high-throughput screen actives (AID 540297); assay type: functional
T7 sequence (Q9GZU7 whole entry): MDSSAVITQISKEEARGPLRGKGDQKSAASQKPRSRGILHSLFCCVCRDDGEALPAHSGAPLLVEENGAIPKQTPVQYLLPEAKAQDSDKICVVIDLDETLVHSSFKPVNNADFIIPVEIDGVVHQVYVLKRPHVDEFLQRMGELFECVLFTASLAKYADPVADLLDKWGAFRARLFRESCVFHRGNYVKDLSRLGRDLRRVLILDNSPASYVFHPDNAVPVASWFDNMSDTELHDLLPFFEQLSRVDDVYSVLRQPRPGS

[16] = target: T8, Replicative DNA helicase DnaB (Mycobacterium tuberculosis, UniProt P9WMR3); assay: DnaB intein splicing inhibitors, dose response, biochemical, cell-free fluorescence (AID 449749); assay type: functional
T8 sequence (P9WMR3 whole entry): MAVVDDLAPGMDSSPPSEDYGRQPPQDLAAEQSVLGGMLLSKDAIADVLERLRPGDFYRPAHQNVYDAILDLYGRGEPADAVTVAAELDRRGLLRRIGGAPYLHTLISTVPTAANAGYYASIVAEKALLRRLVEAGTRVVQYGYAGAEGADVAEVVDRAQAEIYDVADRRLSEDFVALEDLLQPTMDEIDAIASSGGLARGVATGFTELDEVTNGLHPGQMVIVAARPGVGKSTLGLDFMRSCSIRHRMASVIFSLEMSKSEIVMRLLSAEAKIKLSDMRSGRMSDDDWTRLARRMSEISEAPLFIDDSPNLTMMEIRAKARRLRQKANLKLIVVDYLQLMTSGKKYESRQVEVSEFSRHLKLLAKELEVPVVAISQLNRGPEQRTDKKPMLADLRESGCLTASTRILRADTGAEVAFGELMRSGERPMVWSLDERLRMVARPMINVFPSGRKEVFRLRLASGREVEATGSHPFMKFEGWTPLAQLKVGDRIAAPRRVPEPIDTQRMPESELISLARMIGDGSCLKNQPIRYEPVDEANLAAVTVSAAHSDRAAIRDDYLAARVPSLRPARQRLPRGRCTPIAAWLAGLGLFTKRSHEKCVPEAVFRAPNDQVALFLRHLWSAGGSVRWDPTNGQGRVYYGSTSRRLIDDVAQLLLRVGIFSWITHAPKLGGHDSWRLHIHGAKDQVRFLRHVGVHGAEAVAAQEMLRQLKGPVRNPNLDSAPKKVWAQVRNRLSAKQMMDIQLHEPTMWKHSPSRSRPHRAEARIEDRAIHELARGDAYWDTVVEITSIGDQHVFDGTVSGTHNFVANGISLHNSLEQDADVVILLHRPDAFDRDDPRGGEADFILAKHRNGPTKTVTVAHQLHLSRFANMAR

[17] = target: Induced myeloid leukemia cell differentiation protein Mcl-1 (Homo sapiens, UniProt Q07820); assay type: functional
Chain of Induced myeloid leukemia cell differentiation protein Mcl-1 (Q07820 whole entry): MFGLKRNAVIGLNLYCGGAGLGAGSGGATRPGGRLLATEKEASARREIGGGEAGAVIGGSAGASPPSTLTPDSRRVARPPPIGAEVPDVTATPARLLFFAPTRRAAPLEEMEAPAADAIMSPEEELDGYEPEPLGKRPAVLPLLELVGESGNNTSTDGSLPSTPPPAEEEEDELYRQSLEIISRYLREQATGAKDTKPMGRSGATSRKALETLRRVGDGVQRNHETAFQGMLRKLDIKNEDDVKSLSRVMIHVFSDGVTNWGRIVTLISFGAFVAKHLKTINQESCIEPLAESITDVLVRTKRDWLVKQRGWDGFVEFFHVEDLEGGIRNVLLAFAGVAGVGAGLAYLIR

Protein RecA = target: T9, Protein RecA (Mycobacterium tuberculosis, UniProt P9WHJ3); assay: Fluorescence Cell-Free Homogeneous Dose Retest to Identify Inhibitors of RecA-Intein Splicing Activity. [Related pubchem assays (depositor defined):AID2097, AID2223, AID489010, AID492950]; assay type: functional
T9 sequence (P9WHJ3 whole entry): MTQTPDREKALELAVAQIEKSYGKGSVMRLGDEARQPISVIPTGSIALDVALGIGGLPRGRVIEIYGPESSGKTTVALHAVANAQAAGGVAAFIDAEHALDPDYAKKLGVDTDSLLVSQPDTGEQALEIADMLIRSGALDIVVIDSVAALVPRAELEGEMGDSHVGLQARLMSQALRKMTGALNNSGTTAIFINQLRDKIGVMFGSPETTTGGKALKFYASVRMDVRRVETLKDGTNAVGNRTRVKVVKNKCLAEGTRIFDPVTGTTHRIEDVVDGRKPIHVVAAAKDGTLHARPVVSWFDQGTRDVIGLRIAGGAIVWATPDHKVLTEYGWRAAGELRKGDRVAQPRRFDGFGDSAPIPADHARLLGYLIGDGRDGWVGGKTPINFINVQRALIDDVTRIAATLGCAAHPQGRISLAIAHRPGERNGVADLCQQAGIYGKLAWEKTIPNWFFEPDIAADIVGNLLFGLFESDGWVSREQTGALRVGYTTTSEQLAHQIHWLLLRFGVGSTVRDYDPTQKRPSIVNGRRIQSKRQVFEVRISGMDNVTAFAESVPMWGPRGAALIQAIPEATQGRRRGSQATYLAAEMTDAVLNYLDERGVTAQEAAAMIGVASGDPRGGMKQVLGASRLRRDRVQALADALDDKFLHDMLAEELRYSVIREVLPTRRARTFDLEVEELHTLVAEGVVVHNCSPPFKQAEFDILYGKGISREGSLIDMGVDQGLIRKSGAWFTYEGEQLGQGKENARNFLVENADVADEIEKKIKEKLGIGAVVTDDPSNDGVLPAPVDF

[18] = viability of uninfected HEp-2 cells – cell-based, HTS, cytotoxicity control for RSV inhibitor project, dose response (AID 2410); assay type: functional; conditions: human respiratory syncytial virus

## COc1ccc(Cn2c(SCC(=O)NCc3ccco3)nc3ccsc3c2=O)cc1
Bcl-2-related protein A1
  IC50: > 20 µM (inactive)
[1]
  IC50: 14.4 µM (active)
[2]
  IC50: 10.4 µM (active)

## CCC(OCC(O)CN1CCN(CCN2C(=O)c3cccc4cccc(c34)C2=O)CC1)c1ccccc1 (stereo unspecified)
Bcl-2-related protein A1
  IC50: > 20 µM (inactive)
[1]
  IC50: 9.26 µM (active)
[2]
  IC50: 12.4 µM (active)

## CC(OC(=O)c1cc(-c2ccc(Br)cc2)[nH]n1)C(=O)NC(C)(C)C (stereo unspecified)
[3]
  IC50: 19.5 µM (active)
[4]
  IC50: > 100 µM (not active)

## O=S(=O)(Nc1ccncn1)c1ccccc1
[3]
  IC50: > 100 µM (inactive)
[4]
  IC50: > 100 µM (not active)

## COC(=O)c1cc(-c2ccc(OC)cc2)[nH]n1
[3]
  IC50: 2.33 µM (active)
[4]
  IC50: > 100 µM (not active)

## O=C(N/N=C/c1ccc([N+](=O)[O-])o1)c1cc2c(ccc3ccccc32)o1
SUMO-activating enzyme [5]
  IC50: 11 µM (active)
[6]
  IC50: 50 µM (inactive)
SUMO-activating enzyme [7]
  IC50: 28.4 µM (active)

## CN1CCN(CCCNC(=O)c2ccc(/C=C3\Sc4ccccc4N(Cc4ccc(F)cc4)C3=O)cc2)CC1
[6]
  IC50: 50 µM (inactive)
[8]
  AC50: 8.2 µM (active)

## Cc1ccccc1C(=O)N1CCN(c2ccc(NC(=S)NC(=O)c3cccs3)cc2)CC1
Bcl-2-related protein A1
  IC50: > 20 µM (inactive)
[1]
  IC50: 15.6 µM (active)
[2]
  IC50: 10.8 µM (active)

## O=C(CCc1ccccc1)N/N=C/c1cc(Br)ccc1O
[9]
  CC50: 13.5 µM (active)
[10]
  CC50: 6.36 µM (active)
[11]
  CC50: 12.3 µM (active)
Cells [12]
  EC50: 261 µM (active)
Cells [13]
  EC50: 286 µM (active)

## O=C(N/N=C/c1ccc(-c2cccc([N+](=O)[O-])c2)o1)c1ccccc1O
SUMO-activating enzyme [5]
  IC50: 15.9 µM (active)
[14]
  EC50: > 260 µM (inactive)
[15]
  IC50: 3.68 µM (active)
SUMO-activating enzyme [7]
  IC50: 16.3 µM (active)

## Nc1ccc(N)c(C(=O)O)c1
[16]
  AC50: 6.81 µM (active)
[17]
  IC50: 1.59 µM (active)
Protein RecA
  EC50: 3.76 µM (active)
[6]
  IC50: 13.4 µM (active)

## Cc1ccc(C2=NN(C(=O)CCC(=O)O)C(c3cn(-c4ccccc4)nc3-c3ccc(C)cc3)C2)cc1 (stereo unspecified)
[18]
  CC50: 24.8 µM (active)
SUMO-activating enzyme [5]
  IC50: 20.1 µM (active)
SUMO-activating enzyme [7]
  IC50: 4.8 µM (active)
